Like-named read-outs stand apart in the source and are kept apart here.
Key:
[1] = biological target: T1, RORγ ligand-binding domain fused to Gal4 (Homo sapiens, UniProt P51449); assay: RORγ Reporter Assay (Gal4); format: cell-based
T1 construct: Gal4 (galactose-responsive transcription factor); expressed in transfected cells; host or cells: HEK293
T1 sequence (P51449 269-508 limits assumed): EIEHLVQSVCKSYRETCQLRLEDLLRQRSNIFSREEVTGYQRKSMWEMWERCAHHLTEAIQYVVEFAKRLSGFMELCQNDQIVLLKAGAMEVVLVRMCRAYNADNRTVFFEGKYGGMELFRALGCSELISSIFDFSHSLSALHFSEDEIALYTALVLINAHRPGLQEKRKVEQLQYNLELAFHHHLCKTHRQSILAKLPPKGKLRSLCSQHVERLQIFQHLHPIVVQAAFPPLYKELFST
Method in brief: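 Percent inhibition was derived from luciferase RLU versus vehicle mean after 24 h compound incubation (37 °C, 0.1% DMSO). The cells were HEK293, transiently co-expressing a Gal4–RORγ ligand-binding-domain fusion plus a UAS-driven luciferase gene.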

[2] = biological target: T1, RORγ ligand-binding domain fused to Gal4; conditions: cited from earlier work
[3] = test system: IL-17A secretion in activated PBMCs; assay: IL-17A secretion in activated PBMCs; format: cell-based, human; conditions: human PBMCs stimulated with CD3/CD28 Dynabeads for 48 h, absolute IC50
Experimental: Heparin-treated whole blood from healthy human volunteers was supplied from Hospital de Sant Pau (Barcelona) under the approval of the local ethical review board for human studies (Hospital de Sant Pau, Barcelona, Spain). Human peripheral blood mononuclear cells (PBMCs) were isolated from healthy human volunteers by density gradient centrifugation using the Ficoll-Paque (GE Healthcare). […] Cells were seeded in 384-well plate (DiscoverX), at 40,000 cells per well and cultured 2 h at 37° C. and 5% CO2.
Dose-response curves with compounds were prepared using a 5-fold serial dilution (10 concentrations) in 100% DMSO and further diluted 100-fold in culture medium. Compound solutions (5 μL) were added to the plate containing cells (final DMSO concentration of 0.1%) and incubated for 30 min. Then, cells were stimulated with CD3/CD28 Dynabeads (ThermoFisher, at a bead-to-cell ratio of 1:1) for 48 h at 37° C. and 5% CO2.
IL-17A levels in supernatant were determined by immunoassay using hIL17A QBeads (Intellicyt) and by fluorescence analysis in iQue flow cytometer following the manufacturer's instructions. Inhibition of IL-17A secretion was calculated using the following formula: inhibition=100*[1−[(x−mean basal condition)/(mean top condition−mean basal condition)]]. Activated DMSO-treated cells were used as top condition and activated GNE09461 (10 μM)-treated cells as basal condition.

[4] = RORγ Gal4 assay EC50, Examples in <500 range, Examples of WO2016020288, based on % inhibition at 0.1 and/or 1 uM (Table 5 c, footnote 5)
[5] = comparison compounds of WO2016020288, source marked WO2016020288
[6] = RORγ Gal4 assay EC50, Examples in <100 range, Examples of WO2016020288, based on % inhibition at 0.1 and/or 1 uM (Table 5 c, footnote 4)
[7] = comparison examples of WO2016020288 (footnote 1)
[8] = HEK293 cells co-transfected with RORγ LBD-Gal4 and luciferase reporter, 24 h incubation, absolute EC50, read-out: EC50

| Structure (SMILES) | EC50 [1, 4] | EC50 [1, 6] | EC50 [1, 8] | IC50 ([3]; Homo sapiens, PBMC, 48 h) | other results |
| --- | --- | --- | --- | --- | --- |
| CC(=O)N1CCC(CNc2ncnc(N(Cc3ccc(C(F)(F)F)cc3)C3CC3)c2F)CC1 [Example A11, reference compound] | < 500 nM |  |  |  | EC50 [2, 5]: < 100 nM |
| NC(=O)Cc1ccc(CNc2ncnc(N(Cc3cnc(C(F)(F)F)nc3)C3CC3)c2F)cc1 [Example A98, reference compound] | < 500 nM | < 100 nM |  |  | EC50 [2, 7]: < 100 nM |
| CN(Cc1cccc(OC(F)(F)F)c1)c1ncnc(NCc2ccc(CC(N)=O)cc2)c1F [Example A128, reference compound] | < 500 nM | < 100 nM |  |  | EC50 [2, 7]: < 100 nM |
| NC(=O)Cc1ccc(CNc2ncnc(N(Cc3ccc(C(F)(F)F)cn3)C3CC3)c2F)cc1 [Example A85, reference compound] | < 500 nM | < 100 nM |  |  | EC50 [2, 7]: < 100 nM |
| NC(=O)Cc1ccc(CNc2ncnc(N(Cc3ccc(C(F)(F)F)cc3)C3CC3)c2F)cc1 [Example A2, reference compound] | < 500 nM | < 100 nM |  |  | EC50 [2, 5]: < 100 nM |
| Cn1cc(-c2ccc(CN(c3ncnc(NC[C@]4(O)CCN(CC(N)=O)C[C@H]4O)c3F)C3CC3)c(F)c2)cn1 (single isomer, unassigned) [Example D5-05-2] |  |  | 29 nM |  | IC50 [3]: 200 nM |
| [2H]C([2H])(C(N)=O)N1CC[C@@H](CNc2ncnc(N(Cc3ccc(C(F)(F)F)cc3)C3CC3)c2F)[C@H](O)C1 (relative stereo) [Example A7-69, rel-2-((3R,4R)-4-(((6-(cyclopropyl(4-(trifluoromethyl)benzyl)amino)-5-fluoropyrimidin-4-yl)amino)methyl)-3-hydroxypiperidin-1-yl)acetamide-2,2-d2] |  |  | 2.7 nM | 3.1 nM |  |
| CC(c1ccc(C(F)(F)F)cc1)N(c1ncnc(NCc2ccc(CC(N)=O)cc2)c1F)C1CC1 (stereo not shown) [Example A3, reference compound] | < 500 nM | < 100 nM |  |  | EC50 [2, 7]: < 100 nM |
| NC(=O)CC1CC(CNc2ncnc(N(Cc3ccc(C(F)(F)F)cc3)C3CC3)c2F)C1 (stereo not shown) [Example A95, reference compound] | < 500 nM |  |  |  | EC50 [2, 5]: < 500 nM |
| CS(=O)(=O)N1CCC(CNc2ncnc(N(Cc3ccc(C(F)(F)F)cc3)C3CC3)c2F)CC1 [Example A7, reference compound] | < 500 nM | < 100 nM |  |  | EC50 [2, 5]: < 100 nM |
| NC(=O)C(CO)N1CC[C@@H](CNc2ncnc(N(Cc3ccc(C(F)(F)F)cc3)C3CC3)c2F)[C@H](O)C1 (mixture of isomers) [Example A7-65, rac-2-((3R,4R)-4-(((6-(cyclopropyl(4-(trifluoromethyl)benzyl)amino)-5-fluoropyrimidin-4-yl)amino)methyl)-3-hydroxypiperidin-1-yl)-3-hydroxypropanamide] |  |  | 5.8 nM | 12 nM |  |
| NC(=O)CN1CCC(CO)(CNc2ncnc(N(Cc3ccc(C(F)(F)F)cc3)C3CC3)c2F)CC1 [Example A7-51, 2-(4-(((6-(cyclopropyl(4-(trifluoromethyl)benzyl)amino)-5-fluoropyrimidin-4-yl)amino)methyl)-4-(hydroxymethyl)piperidin-1-yl)acetamide] |  |  | 2.4 nM | 7.3 nM |  |
| CCN(Cc1ccc(C(F)(F)F)cc1)c1ncnc(NC[C@]2(O)CCN(CC(N)=O)C[C@H]2O)c1F (single isomer, unassigned) [Example D5-01-1-2] |  |  | 9.6 nM |  | IC50 [3]: 24 nM |
| NC(=O)CN1CC[C@H](CNc2ncnc(N(Cc3ccc(C(F)(F)F)cc3)C3CC3)c2F)[C@@H](O)C1 (stereo in doubt) [Example A7-01-2, rel-2-((3R,4R)-4-(((6-(Cyclopropyl(4-(trifluoromethyl)benzyl)amino)-5-fluoropyrimidin-4-yl)amino)methyl)-3-hydroxypiperidin-1-yl)acetamide] |  |  | 1.5 nM | 2.7 nM |  |
| NC(=O)Cc1ccc(CNc2ncnc(N(Cc3cccc(OC(F)(F)F)c3)C3CC3)c2F)cc1 [Example A102, reference compound] | < 500 nM | < 100 nM |  |  | EC50 [2, 7]: < 100 nM |
| CCN(Cc1ccc(C(F)(F)F)cc1F)c1ncnc(NC[C@H]2CCN(CC(N)=O)C[C@@H]2O)c1F (stereo in doubt) [Example A7-26-2, rel-2-((3R,4R)-4-(((6-(ethyl(2-fluoro-4-(trifluoromethyl)benzyl)amino)-5-fluoropyrimidin-4-yl)amino)methyl)-3-hydroxypiperidin-1-yl)acetamide] |  |  | 8.5 nM | 29 nM |  |
| NC(=O)Cc1ccc(CNc2ncnc(N(Cc3ccc(C(F)(F)F)nc3)C3CC3)c2F)cc1 [Example A83, reference compound] | < 500 nM | < 100 nM |  |  | EC50 [2, 7]: < 100 nM |
| NC(=O)CN1CC[C@@H](CNc2ncnc(N(Cc3ccc(C(F)(F)F)cn3)C3CC3)c2F)[C@H](O)C1 (single isomer, unassigned) [Example A7-14-1] |  |  | 8.3 nM | 38 nM | EC50 ([1]; compounds of the present disclosure, value from Table 2 herein, read-out: Gal4 assay EC50): < 100 nM |
| NC(=O)CN1CC[C@@H](CNc2ncnc(N(Cc3ccc(OC(F)F)cc3F)C3CC3)c2F)[C@H](O)C1 (racemic) [Example A7-42, rac-2-((3R,4R)-4-(((6-(cyclopropyl(4-(difluoromethoxy)-2-fluorobenzyl)amino)-5-fluoropyrimidin-4-yl)amino)methyl)-3-hydroxypiperidin-1-yl)acetamide] |  |  | 18 nM | 200 nM |  |
| CCN(Cc1ccc(-n2cccn2)cc1)c1ncnc(NC[C@@H]2CCN(CC(N)=O)C[C@H]2O)c1F (racemic) [Example A7-77, rac-2-((3R,4R)-4-(((6-((4-(1H-Pyrazol-1-yl)benzyl)(ethyl)amino)-5-fluoropyrimidin-4-yl)amino)methyl)-3-hydroxypiperidin-1-yl)acetamide] |  |  | 73 nM | 440 nM |  |
| Cc1cc(C(F)(F)F)ccc1CN(c1ncnc(NCC2CCN(CC(N)=O)CC2)c1F)C1CC1 [Example A7-02, 2-(4-(((6-(cyclopropyl(2-methyl-4-(trifluoromethyl)benzyl)amino)-5-fluoropyrimidin-4-yl)amino)methyl)piperidin-1-yl)acetamide] |  |  | 76 nM | 58 nM |  |
| NC(=O)CN1CCC(CNc2ncnc(N(Cc3ccc(C(F)(F)F)cc3)C3CC3)c2F)(c2ncon2)CC1 [Example A7-81, 2-(4-(((6-(Cyclopropyl(4-(trifluoromethyl)benzyl)amino)-5-fluoropyrimidin-4-yl)amino)methyl)-4-(1,2,4-oxadiazol-3-yl)piperidin-1-yl)acetamide] |  |  | 5.3 nM | 120 nM |  |
| OC1(CNc2ncnc(N(Cc3ccc(C(F)(F)F)cc3)C3CC3)c2F)CCC(F)(F)CC1 [Example A44, reference compound] | < 500 nM | < 100 nM |  |  | EC50 [2, 5]: < 100 nM |
| CCN(Cc1ccc(C(F)(F)F)cc1)c1ncnc(NC[C@H]2CCN(C(CO)C(N)=O)C[C@@H]2O)c1F (relative stereo) [Example A7-66-2, rel-(R)-2-((3R,4R)-4-(((6-(ethyl(4-(trifluoromethyl)benzyl)amino)-5-fluoropyrimidin-4-yl)amino)methyl)-3-hydroxypiperidin-1-yl)-3-hydroxypropanamide OR rel-(R)-2-((3S,4S)-4-(((6-(ethyl(4-(trifluoromethyl)benzyl)amino)-5-fluoropyrimidin-4-yl)amino)methyl)-3-hydroxypiperidin-1-yl)-3-hydroxypropanamide] |  |  | 88 nM |  | IC50 [3]: 210 nM |

Source: patent US12441704B2, “Compounds active towards nuclear receptors” (NUEVOLUTION A/S, priority 2019, dated 2025)
